Assays:
[1] = Cmax in plasma of mouse bearing human A2780 cells at 80 mg/kg, ip administered as DMSO/egg phospholipid formulation; assay type: ADME, organism-based; parameters: dose 80 mg/kg, route intraperitoneal
[2] = Cmax in tumor of mouse bearing human A2780 cells at 80 mg/kg, ip administered as DMSO/egg phospholipid formulation; assay type: ADME, organism-based, Neoplasm; parameters: dose 80 mg/kg, route intraperitoneal; details: read-out: Cmax_tumor
[3] = Cmax in liver of mouse bearing human A2780 cells at 80 mg/kg, ip administered as DMSO/egg phospholipid formulation; assay type: ADME, organism-based; parameters: dose 80 mg/kg, route intraperitoneal
[4] = AUC in plasma of mouse bearing human A2780 cells at 80 mg/kg, ip administered as DMSO/egg phospholipid formulation; assay type: ADME, organism-based; parameters: dose 80 mg/kg, route intraperitoneal
[5] = AUC in tumor of mouse bearing human A2780 cells at 80 mg/kg, ip administered as DMSO/egg phospholipid formulation; assay type: ADME, organism-based, Neoplasm; parameters: dose 80 mg/kg, route intraperitoneal
[6] = AUC in liver of mouse bearing human A2780 cells at 80 mg/kg, ip administered as DMSO/egg phospholipid formulation; assay type: ADME, organism-based; parameters: dose 80 mg/kg, route intraperitoneal
Plasma = test: Apparent volume of distribution in plasma of mouse bearing human A2780 cells at 80 mg/kg, ip administered as DMSO/egg phospholipid formulation; assay type: ADME, organism-based; parameters: dose 80 mg/kg, route intraperitoneal; details: in vivo
[7] = Apparent volume of distribution in tumor of mouse bearing human A2780 cells at 80 mg/kg, ip administered as DMSO/egg phospholipid formulation; assay type: ADME, organism-based, Neoplasm; parameters: dose 80 mg/kg, route intraperitoneal; details: in vivo
Liver [8] = test: Apparent volume of distribution in liver of mouse bearing human A2780 cells at 80 mg/kg, ip administered as DMSO/egg phospholipid formulation; assay type: ADME, organism-based; parameters: dose 80 mg/kg, route intraperitoneal; details: in vivo
[9] = Clearance in plasma of mouse bearing human A2780 cells at 80 mg/kg, ip administered as DMSO/egg phospholipid formulation; assay type: ADME, organism-based; parameters: dose 80 mg/kg, route intraperitoneal
[10] = Clearance in tumor of mouse bearing human A2780 cells at 80 mg/kg, ip administered as DMSO/egg phospholipid formulation; assay type: ADME, organism-based, Neoplasm; parameters: dose 80 mg/kg, route intraperitoneal; details: in vivo
Liver [11] = test: Clearance in liver of mouse bearing human A2780 cells at 80 mg/kg, ip administered as DMSO/egg phospholipid formulation; assay type: ADME, organism-based; parameters: dose 80 mg/kg, route intraperitoneal; details: in vivo
[12] = Half life in plasma of mouse bearing human A2780 cells at 80 mg/kg, ip administered as DMSO/egg phospholipid formulation; assay type: ADME, organism-based; parameters: dose 80 mg/kg, route intraperitoneal
[13] = Half life in tumor of mouse bearing human A2780 cells at 80 mg/kg, ip administered as DMSO/egg phospholipid formulation; assay type: ADME, organism-based, Neoplasm; parameters: dose 80 mg/kg, route intraperitoneal
[14] = Half life in liver of mouse bearing human A2780 cells at 80 mg/kg, ip administered as DMSO/egg phospholipid formulation; assay type: ADME, organism-based; parameters: dose 80 mg/kg, route intraperitoneal
[15] = Cmax in human at 220 mg/m2 administered as DMSO/egg phospholipid formulation; assay type: ADME, organism-based; details: in vivo
[16] = Tmax in human at 220 mg/m2 administered as DMSO/egg phospholipid formulation; assay type: ADME, organism-based; details: in vivo
[17] = Half life in human at 220 mg/m2 administered as DMSO/egg phospholipid formulation; assay type: ADME, organism-based; details: in vivo
[18] = AUC in human at 220 mg/m2 administered as DMSO/egg phospholipid formulation; assay type: ADME, organism-based; details: plasma
[19] = Volume of distribution at steady state in human at 220 mg/m2 administered as DMSO/egg phospholipid formulation; assay type: ADME, organism-based; details: in vivo, read-out: Vdss
[20] = molecular target: T1, Heat shock protein HSP 90-beta (Homo sapiens, UniProt P08238)
T1 sequence (P08238 whole entry): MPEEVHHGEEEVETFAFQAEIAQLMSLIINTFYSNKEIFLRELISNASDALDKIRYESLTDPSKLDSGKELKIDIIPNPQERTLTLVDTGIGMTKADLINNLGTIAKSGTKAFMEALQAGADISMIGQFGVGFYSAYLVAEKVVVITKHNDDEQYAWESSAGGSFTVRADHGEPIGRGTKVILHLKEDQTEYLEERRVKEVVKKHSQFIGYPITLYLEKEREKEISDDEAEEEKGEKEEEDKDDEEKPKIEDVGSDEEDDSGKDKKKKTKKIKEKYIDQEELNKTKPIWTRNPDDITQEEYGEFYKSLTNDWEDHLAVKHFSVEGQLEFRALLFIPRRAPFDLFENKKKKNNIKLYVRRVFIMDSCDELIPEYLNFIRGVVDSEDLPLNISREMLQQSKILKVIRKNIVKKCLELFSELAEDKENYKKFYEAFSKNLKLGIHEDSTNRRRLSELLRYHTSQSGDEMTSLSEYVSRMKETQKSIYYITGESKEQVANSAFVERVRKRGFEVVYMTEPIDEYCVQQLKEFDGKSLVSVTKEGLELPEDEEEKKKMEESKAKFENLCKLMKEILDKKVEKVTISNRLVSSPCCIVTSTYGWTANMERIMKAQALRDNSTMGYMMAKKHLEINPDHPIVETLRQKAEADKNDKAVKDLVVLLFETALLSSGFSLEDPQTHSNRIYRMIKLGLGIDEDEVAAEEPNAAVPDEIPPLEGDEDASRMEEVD
Description: Binding affinity to HSP90 under non-reducing conditions in absence of TECP

[21] = molecular target: T1, Heat shock protein HSP 90-beta; remark: listed apart in the source
Description: Inhibition of HSP90-mediated client protein HER2 degradation in human MCF7 cells

[22] = molecular target: T1, Heat shock protein HSP 90-beta; remark: listed apart in the source
Description: (§1) Inhibition of HSP90-mediated client protein HER2 degradation

[23] = molecular target: T1, Heat shock protein HSP 90-beta; remark: listed apart in the source
Description: Binding affinity to HSP90 under reducing conditions in presence of TECP

[24] = molecular target: T1, Heat shock protein HSP 90-beta; remark: listed apart in the source
Description: as §1

Rattus norvegicus = test: Toxicity in iv dosed rat assessed as maximum tolerated dose; assay type: organism-based; details: in vivo
Canis familiaris = test: Toxicity in iv dosed dog assessed as maximum tolerated dose; assay type: organism-based, Canis lupus familiaris; details: in vivo
[25] = Chemical stability assessed as half life; assay type: physicochemical

## CO[C@H]1/C=C\C=C(/C)C(=O)NC2=CC(=O)C(N)=C(C[C@@H](C)C[C@H](OC)[C@H](O)[C@@H](C)/C=C(\C)[C@@H]1OC(N)=O)C2=O
[1]
  Cmax: 4.8 µM
[2]
  Cmax: 3.5 µM
[3]
  Cmax: 18 µM
[4]
  AUC: 15 µM·h
[5]
  AUC: 43 µM·h
[6]
  AUC: 59 µM·h
Plasma
  Vz: 0.18 L
[7]
  Vz: 0.49 L
Liver [8]
  Vz: 0.06 L
[9]
  CL/F: 1.83 mL/min
[10]
  CL: 0.03 L/h
Liver [11]
  CL: 0.02 L/h
[12]
  half-life: 1.2 h
[13]
  half-life: 13.7 h
[14]
  half-life: 1.8 h
[15]
  Cmax: 3 µM
[16]
  Tmax: 1.7 h
[17]
  half-life: 6.9 h
[18]
  AUC: 21 µM·h
[19]
  Vd: 230 L
[20]
  Ki: 21 nM
[21]
  IC50: 12 nM
[22]
  IC50: 7 nM
[23]
  Ki: 3 nM

## C#CCCCn1c(Sc2cc3c(cc2Br)OCO3)nc2c(N)ncnc21
[24]
  Activity: 30 nM

## CCCCn1c(Cc2ccc(OC)c(OC)c2OC)nc2c(N)ncnc21
[24]
  Activity: 40000 nM

## CO[C@H]1/C=C\C=C(/C)C(=O)NC2=CC(=O)C(NCCN(C)C)=C(C[C@@H](C)C[C@H](OC)[C@H](O)[C@@H](C)/C=C(\C)[C@@H]1OC(N)=O)C2=O [ALVESPIMYCIN]
Rattus norvegicus
  MTD: 12 mg/m2
Canis familiaris
  MTD: 8 mg/m2
[25]
  half-life: 0.433 h

## COc1ccc(I)c(Sc2nc3c(N)ncnc3n2CCNCC(C)(C)C)c1
[24]
  Activity: 30 nM

Reference: ChEMBL document CHEMBL1154885, “Heat shock protein 90: inhibitors in clinical trials” (J Med Chem, 2010)
